Measurements as given in patent US9492368B2, “External preparation for skin” (HAYASHIBARA CO., LTD., priority 2011, dated 2016).
Marks after values point to notes of the source that are not given here.

Columns and labels:
[1] = test system: NHDF cells; assay: Collagen production by NHDF cells (Sircol collagen assay); assay type: cell-based, human; conditions: three days
Source text: For the anti-wrinkle action of glucosyladenosines, the effect of glucosyladenosines on the collagen production in the dermis was examined as follows using a normal human fetal fibroblast (NHDF) commonly used for evaluating agents for enhancing collagen production in the skin. […] Thereafter, the culture supernatant in each well was removed by aspiration, and the resulting cells were washed with phosphate buffered saline (PBS), and admixed with pepsin, commercialized by Sigma-Aldrich Co. LLC., Missouri, USA, which had been diluted with 1 M acetic acid to give a concentration of 1 mg/ml, in a volume of 250 μl/well. The resulting plates were shaken at ambient temperature for four hours, and the cells adhered to the wells were detached therefrom with a cell scraper and subjected to pipetting, followed by collecting the resulting cell suspension after the pepsin digestion into “EPPENDORF TUBE”, a product name of a 1.5 ml microtube, commercialized by Eppendorf AG, Hamburg, Germany. “Sicrol Collagen Assay Kit”, a product name of a developing color reagent for quantifying collagen, commercialized by Biocolor, CA, USA, was added to the tubes in a volume of 500 μl/tube, mixed with a vortex mixer, kneaded by allowing the tubes upside-down at an ambient temperature for exact 30 min using “RT-50”, a product name of a rotator commercialized by TAITEC Corporation, Saitama, Japan, and centrifuged (1,500 rpm) at 4° C. for 10 min to remove supernatants. The resulting sediments were admixed with 1 N NaOH in a volume of 100 μl/tube and dissolved by pipetting. The resulting solutions were all transferred to “FALCON MICROTEST™96”, a product name of a 96-well microplate commercialized by Becton, Dickinson and Company, NJ, USA, and measured for absorbance (A560-A650) on “Vmax Microplate Reader”, a product name of an absorption spectrometer commercialized by Molecular Devices Corporation, CA, USA. The collagen level in each well was determined based on a standard curve prepared by using type I collagen commercialized by KOKEN Co., Ltd., Tokyo, Japan, and the data are shown in Table 6 in parallel.

[2] = test system: sphingomyelinase (SMase); assay: Real-time PCR gene expression in NHEK cells: sphingomyelinase; assay type: cell-based, human; conditions: 1 μM, seven days, relative to control = 1.00
Method: (§1) Since glucosyladenosines were confirmed in Experiment 5 to have an action of enhancing the differentiation of keratinocytes effective for skin improvement, a test for examining the change of the expression level of a molecular marker gene of keratinocytes, as an index, was performed as follows using a real-time PCR analysis method to examine the above action in more detail. The expression level of a ceramide-synthesis-related gene was also studied to examine the influence of glucosyladenosines on ceramide synthesis that had been known to have an important role in moisturizing the skin and barrier function of the skin and deemed to be effective for skin improvement. As genes for analysis, profilaggrin (PFG: a later differentiation marker) and involucrin (INV: an early differentiation marker) as differentiation markers of keratinocytes and β-glucocerebrosidase (GCase) and sphingomyelinase (SMase) as ceramide-synthesis-related enzymes were selected, and a gene for cyclophilin B (CypB) as an internal standard upon practicing PCR reaction was used (see FIG. 7). NHEK cells were inoculated to 6-well plate coated with collagen in an amount of 8×10^4 cells/1.5 ml/well, cultured with EpiLife medium, and cultured at 37° C. for two days under a 5 v/v % CO2 condition. Thereafter, the culture medium was removed, and the resulting cells were added with a fresh EpiLife medium containing 5′-glucosyladenosine, 3′-glucosyladenosine, or adenosine in a volume of 1.5 ml/well (giving a final concentration of 1 μM of any one of glucosyladenosines and adenosine), and cultured for seven days while replacing the medium with a fresh one containing any one of glucosyladenosines and adenosine in a volume of 1.5 ml/well every other day. After completion of the culture, each well was washed twice with PBS(K−), followed by adding 0.2 ml/well of 0.025% by mass of trypsin/EDTA solution to the resulting cells and allowing the cells to stand at an ambient temperature for five minutes to detach them from the plates. […]

[3] = test system: involucrin (INV); assay: Real-time PCR gene expression in NHEK cells: involucrin; assay type: cell-based, human; conditions: 1 μM, seven days, relative to control = 1.00
Method: as §1

[4] = test system: three-dimensional skin model (EPI-200 Kit); assay: Cytotoxicity: LDH release from three-dimensional skin model; assay type: cell-based; conditions: 18 hours, control = 1.0
Method: To examine whether glucosyladenosines are successively applied to the skin as ingredients for sustainable external dermal agents, they were examined for cytotoxicity. The strengths of cytotoxicity of glucosyladenosines were examined with an index of […] (LDH) that is released when cell are damaged, as an influence of glucosyladenosines and adenosine on three dimensional skin. […] A system, to which 30% ethanol with no glucosyladenosines and adenosine was added, was provided as a control. For the collected media, the activity of […] (LDH) released from each skin model was assayed on “CYTOTOXICITY DETECTION KIT (LDH)”, a product name of Hoffmann-La Roche Ltd., Basel, Switzerland, and calibrated for obtaining a relative LDH activity by regarding the LDH activity of the control as 1.0 in order to evaluate the cytotoxicity for each sample.

Structure (SMILES)	Collagen production level ([1]; 5 μM in medium)	Collagen production level ([1]; 10 μM in medium)	Gene expression level SMase [2]	Gene expression level INV [3]	Relative LDH activity ([4]; concentration 5%)	Relative LDH activity ([4]; concentration 0.1%)	Relative LDH activity ([4]; concentration 1%)
Nc1ncnc2c1ncn2[C@@H]1O[C@H](CO)[C@@H](O[C@H]2O[C@H](CO)[C@@H](O)[C@H](O)[C@H]2O)[C@H]1O [3′-Glucosyladenosine, α-D-glucopyranosyl-(1→3′)-adenosine]	3.39* μg/well	4.37** μg/well	2.03*	1.52*	0.99	–	–
Nc1ncnc2c1ncn2[C@@H]1O[C@H](CO)[C@@H](O)[C@H]1O [Adenosine, reference compound]	2.61 μg/well	3.02* μg/well	1.35	1.15	–	1.38	3.68
Nc1ncnc2c1ncn2[C@@H]1O[C@H](CO[C@H]2O[C@H](CO)[C@@H](O)[C@H](O)[C@H]2O)[C@@H](O)[C@H]1O [5′-Glucosyladenosine, α-D-glucopyranosyl-(1→5′)-adenosine]	3.53* μg/well	4.54** μg/well	2.57**	1.66**	0.79	–	–
